Data as given in ChEMBL document CHEMBL1129946, “New esters of 4-amino-5-chloro-2-methoxybenzoic acid as potent agonists and antagonists for 5-HT4 receptors” (J Med Chem, 1997).
pEC50, pIC50, pKi: −log10 of the molar value.

Experiments:
[1] = molecular target: 5-hydroxytryptamine receptor 4 (Rattus norvegicus, UniProt Q62758); experiment: Binding affinity towards 5-hydroxytryptamine 4 receptor was determined in rat striatal membranes using [3H]GR-113808 as radioligand; assay type: cell membranes, Striatum, Membrane
5-hydroxytryptamine receptor 4 (Rattus norvegicus, UniProt Q62758), sequence (Q62758 whole entry): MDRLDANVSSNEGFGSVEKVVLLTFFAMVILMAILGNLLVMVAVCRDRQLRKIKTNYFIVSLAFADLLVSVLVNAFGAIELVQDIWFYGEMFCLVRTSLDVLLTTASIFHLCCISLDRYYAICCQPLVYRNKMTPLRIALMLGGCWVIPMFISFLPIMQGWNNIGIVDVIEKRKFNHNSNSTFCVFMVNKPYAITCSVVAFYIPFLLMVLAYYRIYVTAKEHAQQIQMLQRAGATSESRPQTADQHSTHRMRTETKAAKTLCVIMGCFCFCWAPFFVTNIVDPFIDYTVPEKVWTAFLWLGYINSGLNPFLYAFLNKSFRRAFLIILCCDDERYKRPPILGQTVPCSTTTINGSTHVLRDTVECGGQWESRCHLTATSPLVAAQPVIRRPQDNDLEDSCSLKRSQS

[2] = molecular target: T1, 5-hydroxytryptamine receptor 4 (Cavia porcellus, UniProt O70528); experiment: 5-hydroxytryptamine 4 receptor agonist activity, concentration which gave 50% increase in the response to electrically-stimulated myenteric plexus and longitudinal muscle of the guinea pig ileum; assay type: functional, tissue-based
T1 sequence (O70528 whole entry): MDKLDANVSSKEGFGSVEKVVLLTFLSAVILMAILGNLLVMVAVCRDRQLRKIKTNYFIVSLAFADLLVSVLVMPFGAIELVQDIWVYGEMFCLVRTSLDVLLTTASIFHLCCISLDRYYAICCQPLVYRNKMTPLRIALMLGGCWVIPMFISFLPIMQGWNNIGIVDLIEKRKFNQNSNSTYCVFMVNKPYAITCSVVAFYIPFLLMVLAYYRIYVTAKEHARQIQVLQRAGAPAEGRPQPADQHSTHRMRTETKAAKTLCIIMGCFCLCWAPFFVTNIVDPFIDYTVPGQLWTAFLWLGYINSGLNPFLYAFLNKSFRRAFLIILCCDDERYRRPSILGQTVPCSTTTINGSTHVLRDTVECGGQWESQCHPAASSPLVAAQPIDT

[3] = molecular target: 5-hydroxytryptamine receptor 4 (Cavia porcellus) (UniProt O70528); experiment: 5-hydroxytryptamine 4 receptor agonist activity is expressed as percent of the maximum 5-HT response; assay type: functional
5-hydroxytryptamine receptor 4 (Cavia porcellus), sequence (O70528 whole entry): as above

[4] = molecular target: T2, Serotonin 3 (5-HT3) receptor (Rattus norvegicus, UniProt P35563+Q9JJ16); experiment: Binding affinity was measured on 5-hydroxytryptamine 3 receptor using [3H]-BRL 43694 as radioligand in rat posterior cortex
T2 sequence (P35563 whole entry): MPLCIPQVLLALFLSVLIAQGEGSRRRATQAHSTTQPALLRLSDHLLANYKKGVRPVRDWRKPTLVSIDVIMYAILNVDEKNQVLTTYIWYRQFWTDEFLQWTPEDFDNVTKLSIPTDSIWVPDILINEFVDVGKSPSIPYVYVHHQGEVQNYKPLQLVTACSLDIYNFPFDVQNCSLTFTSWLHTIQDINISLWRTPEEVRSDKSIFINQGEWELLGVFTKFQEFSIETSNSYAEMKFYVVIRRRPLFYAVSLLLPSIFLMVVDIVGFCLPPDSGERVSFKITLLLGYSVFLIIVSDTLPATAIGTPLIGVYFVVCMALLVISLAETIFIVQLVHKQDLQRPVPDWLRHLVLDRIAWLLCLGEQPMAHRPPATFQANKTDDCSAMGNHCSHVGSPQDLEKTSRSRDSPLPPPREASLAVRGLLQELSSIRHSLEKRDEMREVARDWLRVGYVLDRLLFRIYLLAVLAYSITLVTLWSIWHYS
T2 sequence (Q9JJ16 whole entry): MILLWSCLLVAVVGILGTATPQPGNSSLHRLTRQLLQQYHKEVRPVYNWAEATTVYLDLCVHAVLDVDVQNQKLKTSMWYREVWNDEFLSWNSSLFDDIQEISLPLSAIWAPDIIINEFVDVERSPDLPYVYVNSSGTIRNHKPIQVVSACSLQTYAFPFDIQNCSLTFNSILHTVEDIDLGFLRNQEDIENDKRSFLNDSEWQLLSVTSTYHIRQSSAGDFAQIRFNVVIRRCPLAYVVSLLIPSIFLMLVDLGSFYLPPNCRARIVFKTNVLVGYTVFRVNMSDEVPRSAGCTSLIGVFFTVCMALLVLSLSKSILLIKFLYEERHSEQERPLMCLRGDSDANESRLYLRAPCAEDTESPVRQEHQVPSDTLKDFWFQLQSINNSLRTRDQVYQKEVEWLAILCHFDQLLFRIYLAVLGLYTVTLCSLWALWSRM

[5] = molecular target: T2, Serotonin 3 (5-HT3) receptor; experiment: Binding affinity was measured on 5-hydroxytryptamine 3 receptor using [3H]-BRL 43694 as radioligand in rat posterior cortex.
[6] = molecular target: T1, 5-hydroxytryptamine receptor 4; experiment: 5-hydroxytryptamine 4 receptor antagonist activity, concentration which gave 50% reduction of the 5-HT-induced contractions in the guinea pig ileum; assay type: functional, tissue-based
[7] = molecular target: T1, 5-hydroxytryptamine receptor 4
[8] = molecular target: T1, 5-hydroxytryptamine receptor 4; experiment: 5-hydroxytryptamine 4 receptor antagonist activity, concentration which gave 50% reduction of the 5-HT-induced contractions in the guinea pig ileum; Inactive up to 10E-5 M; assay type: functional, tissue-based

| SMILES | pKi [1] | pEC50 [2] | Activity [3] [%] | also measured |
| --- | --- | --- | --- | --- |
| COc1cc(N)c(Cl)cc1C(=O)OCCN1CC2CCC(CC2)C1 | 8.26 | 8.11 | 61 | – |
| COc1cc(N)c(Cl)cc1C(=O)OCCN1CCC(NC(C)=O)CC1 | 8.98 | 7.89 | 59 | – |
| COc1cc(N)c(Cl)cc1C(=O)OCCN1CCCC(O)C1 (stereo in doubt; 7j) [listing 1 of 2 here] | 8.32 | 8.30 | – | pKi [4]: < 6.00 |
| COc1cc(N)c(Cl)cc1C(=O)OCCN1CC(C)CC(C)C1 (stereo in doubt; 7g) | 9.59 | – | – | pKi [5]: < 6.00; pIC50 [6]: 7.96 |
| COc1cc(N)c(Cl)cc1C(=O)OCCN1CCCCCC1 | 9.04 | 8.36 | 59 | – |
| COc1cc(N)c(Cl)cc1C(=O)OCCN1CCCC1 | 8.27 | 7.40 | 50 | pIC50 [6]: 6.70 |
| COc1cc(N)c(Cl)cc1C(=O)OCCCN1CCCCC1 | 7.55 | 7.52 | 52 | – |
| COc1cc(N)c(Cl)cc1C(=O)OC1CC2CCC(C1)N2C (centres undefined) | – | – | 41 | – |
| COc1cc(N)c(Cl)cc1C(=O)NCCN1CCCCC1 | 6.87 | < 6.00 | – | pIC50 [6]: < 6.00 |
| NCCc1c[nH]c2ccc(O)cc12 [SEROTONIN] | – | – | – | IC50 [7]: Not Active |
| COc1cc(N)c(Cl)cc1C(=O)N(C)CCN1CCCCC1 | < 6.00 | < 6.00 | – | pIC50 [6]: < 6.00 |
| Cn1cc(C(=O)OCC2CCN(CCNS(C)(=O)=O)CC2)c2ccccc21 | 9.82 | – | – | pIC50 [6]: 7.89 |
| COc1cc(N)c(Cl)cc1C(=O)OCCN1CCCC(C)(C)C1 | 8.76 | – | – | pIC50 [6]: 6.82 |
| COc1cc(N)c(Cl)cc1C(=O)OCCN1C2CCCC1CC2 | 8.03 | 7.40 | 63 | – |
| COc1cc(N)c(Cl)cc1C(=O)OCCN1CC(C)OC(C)C1 (centres undefined) | 8.20 | – | – | IC50 [7]: Not Active; pIC50 [6]: 6.52 |
| COc1cc(N)c(Cl)cc1C(=O)OCCN(C)C | 7.33 | 6.74 | 60 | pIC50 [6]: 6.22 |
| COc1cc(N)c(Cl)cc1C(=O)OCCN1CCCC(O)C1 (stereo in doubt; 7j) [listing 2 of 2 here] | – | – | 64 | – |
| COc1cc(N)c(Cl)cc1C(=O)NC1CC2CCC(C1)N2C (centres undefined) | 7.31 | – | – | – |
| COc1cc(N)c(Cl)cc1C(=O)OCCN1CCC(O)CC1 | 8.85 | 7.85 | 72 | – |
| COc1cc(N)c(Cl)cc1C(=O)NCCN1CC(C)CC(C)C1 (centres undefined) | 6.99 | ~6.03 | 80 | – |
| COc1cc(N)c(Cl)cc1C(=O)OCCN1CCCCC1C (centres undefined) | 8.11 | 8.22 | 82 | – |

| SMILES | pKi [1] | pEC50 [2] | Activity [3] [%] | also measured |
| --- | --- | --- | --- | --- |
| COc1cc(N)c(Cl)cc1C(=O)OCC[n+]1ccccc1 | 8.21 | 7.77 | – | – |
| COc1cc(N)c(Cl)cc1C(=O)OCCN1CC(C)CC(C)C1 (stereo in doubt; 7h) | 8.63 | – | – | pKi [5]: < 6.00; pIC50 [6]: 7.89 |
| COc1cc(N)c(Cl)cc1C(=O)OCCN1CCCCC1 | – | – | – | pKi [5]: 6.14 |
| COc1cc(N)c(Cl)cc1C(=O)OCCN1CCOCC1 | 7.45 | 6.95 | – | IC50 [8]: Not Active |
| COc1cc(N)c(Cl)cc1C(=O)OCCN1CCCC(C)C1 (centres undefined) | 9.03 | 7.82 | 54 | pKi [5]: < 6.00 |
| COc1cc(N)c(Cl)cc1C(=O)OCCN1C(C)CCCC1C (centres undefined) | 7.40 | – | – | – |
| COc1cc(N)c(Cl)cc1C(=O)NCCN(C)C | < 6.00 | – | – | – |
| COc1cc(N)c(Cl)cc1C(=O)OCCN1CCCC(O)C1 (stereo in doubt; 7k) [listing 1 of 2 here] | 9.00 | 8.40 | – | – |
| COc1cc(N)c(Cl)cc1C(=O)OCCN1CCN(c2ccccc2)CC1 | – | – | – | pIC50 [6]: 7.00 |
| COc1cc(N)c(Cl)cc1C(=O)OCCN1CCC(C)CC1 | 8.39 | 8.52 | 57 | – |
| COc1cc(N)c(Cl)cc1C(=O)OCCN1CCC(C(N)=O)CC1 | 8.84 | 7.72 | 65 | – |
| COc1cc(N)c(Cl)cc1C(=O)OCCN1CCCC(O)C1 (stereo in doubt; 7l) [listing 1 of 2 here] | 8.70 | 8.00 | – | – |
| COc1cc(N)c(Cl)cc1C(=O)OCCN1CCCC(O)C1 (stereo in doubt; 7k) [listing 2 of 2 here] | – | – | 62 | – |
| COc1cc(N)c(Cl)cc1C(=O)N[C@@H]1CN2CCC1CC2 | – | 7.11 | 100 | – |
| CCN(CC)CCOC(=O)c1cc(Cl)c(N)cc1OC | 8.26 | – | – | – |
| COc1cc(N)c(Cl)cc1C(=O)OCCN1CC=CCC1 | 8.04 | 7.54 | 65 | – |
| COc1cc(N)c(Cl)cc1C(=O)N[C@H]1CN2CCC1CC2 [(R)ZACOPRIDE] | 5.82 | 6.78 | 84 | – |
| COc1cc(N)c(Cl)cc1C(=O)OCCN1CCCC(O)C1 (stereo in doubt; 7l) [listing 2 of 2 here] | – | – | 61 | – |
| COc1cc(N)c(Cl)cc1C(=O)OCC[N+]12CCC(CC1)CC2 | 8.22 | 8.28 | 78 | pIC50 [6]: ~7.70 |
| CC(C)n1c(=O)n(C(=O)NC2CC3CCC(C2)N3C)c2ccccc21 (centres undefined) | 6.59 | 7.37 | – | IC50 [7]: Not Active |
